Entries after “also recorded” stand apart in the source; their conditions may differ.
Columns and labels:
Assay type in all cases: in vivo
[1] = system: ICAM-1 mRNA in mouse renal cortex; assay: kidney ischemia reperfusion: real time quantitative PCR of ICAM-1; conditions: vs IR group; HEA 5, 7.5, 10 mg/kg; DPCPX 1 mg/kg; DPCPX 1 mg/kg+HEA
Method: Male C57BL/6 mice 20-25 g, after one week of adaptive feeding to the animals, were randomly divided into eight groups: sham-operation group, IR group, HEA 5 mg/kg group, HEA 7 mg/kg group, HEA 10 mg/kg group, DPCPX (1 mg/kg) group, DPCPX (1 mg/kg)+HEA (5 mg/kg) group and DPCPX (1 mg/kg)+HEA (7.5 mg/kg) group. […]
The MPO analysis was conducted according to the specification in the kit. 9.2.6 Real time quantitative PCR analysis of gene expression of ICAM-1, TNF-α and IL-1β; the sequence of primer used in RT-PCR reaction system is as follow:
PCR amplification reaction system: IQ SYBR Green Super mix 12.5 μL, Forward primer (10 μmo/L) 1 μL, Reverse primer (10 μmol/L) 1 μL, cDNA (water was added to dilute to same level) 10.5 μL. […] The statistics and calculation of experiment results was automatically conducted fluorescence quantitative PCR analyzing software BIO-RAD CFX Manager. Target gene mRNA expression level was calculated by 2-ΔΔCt method, and standardized using the GAPDH mRNA in corresponding specimen a standard.

[2] = system: rat middle cerebral artery distal obstruction cerebral ischemia model; assay: dMCAO cerebral ischemia: brain histomorphological staining HE
Method: Using rat middle cerebral artery distal obstruction cerebral ischemia model. (1) according to rat weight, 10% chloral hydrate (3 ml/kg) was peritoneally injected to anaesthetize. (2) the rat lie on right side and fixed, 1 cm skin incision was cut at connection of inner canthus with external canal, fascia was isolated, muscle tissue, the skull was exposed; (3) a small amount of normal saline was sucked with cotton ball to wipe the skull to ac clear view; (4) fascia was isolated under operating microscope, and the skull was exposed, a hole with diameter of 2 mm circular was drilled at a sute 1/3 of spine; (5) the excess bone debris was washed by a small amount of normal saline, the meninge was push aside, and the middle cerebral artery MCA was exposed; (6) the rat lie in supine position and fixed, an incision was made along middle of throat, and arteria carotis communis CCA on both sides were isolate, pass through with a surgical suture, not ligated temporarily; (7) the MCA was found under operating microscope, burned by a monopolar coagulator, then wash and colled with normal saline; (8) immediately after coagulation, the arteria carotis communis on both sides was ligated, and blocked for 60 min; (9) the wound on head was stitched, after 1 hour the arteria carotis communis on both sides was […], and the skin was stitched, thus the modeling was complete. […]

[3] = system: mouse kidney ischemia reperfusion; assay: kidney ischemia reperfusion: kidney histopathologic examination (HE); conditions: vs IR group, DPCPX 1 mg/kg; for renal tubulointerstitial impairment score: P<0.01, HEA 5, 7.5, 10 mg/kg, DPCPX 1 mg/kg+HEA 5 or 7.5 mg/kg; for kidney histopathological changes (HE×400): HEA groups printed as 2.5, 5, 7.5 mg/kg, DPCPX+HEA 5 or 7.5 mg/kg
Method: Male C57BL/6 mice 20-25 g, after one week of adaptive feeding to the animals, were randomly divided into eight groups: sham-operation group, IR group, HEA 5 mg/kg group, HEA 7 mg/kg group, HEA 10 mg/kg group, DPCPX (1 mg/kg) group, DPCPX (1 mg/kg)+HEA (5 mg/kg) group and DPCPX (1 mg/kg)+HEA (7.5 mg/kg) group. The mouse was weighed before operation, then peritoneally injected with pentobarbital sodium 50 mg/kg to anaesthetize the mouse, abdomen was opened by ventromedial incision, blunt dissection and the kidney pedicle was sufficiently exposed, renal ischemia was induced by clapping two side kidney pedicle with non-invasive bulldog clamp, the color of kidney change from bright red to purple black immediately, determination method of success of the experiment model can refer to the methods in literature 7 and 8. At time of 30 min of ischemia the bulldog clamp was loosened, the perfuse was restored, the color of kidney changed gradually from dark red to bright red, showing re perfusion was successful. The wound was stitched. The animals were freely fed water and food. In the sham-operation group, the mice only received operation of abdomen open, kidney pedicle and abdomen suture. The kidney IR mode were made for the mice in the remaining groups. In each drug group, before 15 minute of ischemia, the drug with corresponding concentration was speritoneally injected, in drug combination group, 15 minutes before ischemia, the drugs were given simultaneously. At 24 hours after reperfusion, the mouse was anaesthetized again, the kidney specimen was obtained. The kidney specimen is fixed by 10% formaldehyde solution, paraffin embedded, sectioned, hematoxylin-eosin staining (HE), and the kidney histopathological change was observed under optical microscope.

## OCCNc1ncnc2c1ncn2[C@@H]1O[C@H](CO)[C@@H](O)[C@H]1O [HEA, N(6)-(2-hydroxyethyl)-adenosine]
[1]
  ICAM-1 mRNA expression in renal cortex: significantly reduce the high expression
[2]; dMCAO rat, HEA 7.5 mg/kg ip, vs model group
  brain histomorphology (HE staining): reduce the cerebral cortex tissue structure loosening caused by ischemia; also recorded: improve cell swelling degree and nuclear aberration, and increases cell number
[3]
  renal tubulointerstitial impairment score: significantly reduced
  kidney histopathological changes (HE×400): significantly reduced compared with IR group

## CCCn1c(=O)c2[nH]c(C3CCCC3)nc2n(CCC)c1=O [DPCPX, reference compound]
[1]
  ICAM-1 mRNA expression in renal cortex: not statistically significant
[2]; DPCPX 1 mg/kg ip + HEA 7.5 mg/kg ip
  effect of DPCPX on brain protective effect of HEA (HE staining): blocking the brain protective effect of the HAE
[3]
  renal tubulointerstitial impairment score: significantly increase renal tubulointerstitial impairment scores
  kidney histopathological changes (HE×400): aggravate tissue necrosis
